The text below walks through data of US20260001914A1, “MACROCYCLIC PEPTIDES TARGETING KRAS” (Merck Sharp & Dohme LLC, priority 2022, published 2026).

Molecules are shown by their SMILES. Where a SMILES comes first, the peptide text is derived from it. Bridges are numbered along the chain shown (N, C = ends). [ ]: non-standard residue; d: D form. Phe(4-guanidino) = N=C(N)Nc1ccc(C[C@H](N)C(=O)O)cc1; Ala(pyrimidin-5-yl) = N[C@@H](Cc1cncnc1)C(=O)O; Gly(N-(CH2)3-guanidino) = N=C(N)NCCCNCC(=O)O; Ala(thiazol-5-yl) = N[C@@H](Cc1cncs1)C(=O)O; 3Pal(6-OMe) = COc1ccc(C[C@H](N)C(=O)O)cn1; Ala(cPent) = N[C@@H](CC1CCCC1)C(=O)O; NMeLys(Me) = CNCCCC[C@H](NC)C(=O)O; NMeF = CN[C@@H](Cc1ccccc1)C(=O)O; Ahp(2) = CCCCC[C@H](N)C(=O)O; Cba = N[C@@H](CC1CCC1)C(=O)O; hLys = NCCCCC[C@H](N)C(=O)O; αMeC = C[C@](N)(CS)C(=O)O; Nle = CCCC[C@H](N)C(=O)O

This assay deals with KRAS-G12D protein (Homo sapiens, UniProt P01116, G12D). As to the kind of experiment: SOS-mediated nucleotide exchange assay (BODIPY-GDP / Tb-streptavidin TR-FRET). It counts as biochemical. On the technique in general: TR-FRET usually uses a lanthanide donor and a delayed reading to cut background.
Sequence of KRAS-G12D protein (P01116 1-188 isoform P01116-2 G12D): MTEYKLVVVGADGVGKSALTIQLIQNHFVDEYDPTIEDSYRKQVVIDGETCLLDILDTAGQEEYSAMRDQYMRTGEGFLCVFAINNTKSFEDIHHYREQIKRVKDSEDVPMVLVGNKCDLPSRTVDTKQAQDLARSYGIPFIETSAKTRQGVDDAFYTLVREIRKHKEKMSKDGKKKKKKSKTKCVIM
For `CCCCC[C@@H]1NC(=O)[C@H](Cc2ccc(OC)cc2)NC(=O)[C@H](CC2CCC2)NC(=O)[C@H](Cc2ccc(NC(=N)N)cc2)NC(=O)[C@H](CCCNC(=N)N)NC(=O)[C@H](Cc2ccccc2)NC(=O)CSC[C@@](C)(C(N)=O)NC(=O)[C@H](Cc2ccccc2)N(C)C1=O` [compound 346, cyclo(F-R-Phe4Gn-cBuA-TyrOMe-Ahp-NMeF-aMeCl-ClAc)] ({CH2CO}-FR[Phe(4-guanidino)][Cba]Y(Me)[Ahp(2)][NMeF][αMeC]-NH2; thioether N-8), the midpoint of the response, the EC50, lay at 1.24 nM.
`CCCCC[C@@H]1NC(=O)[C@H](Cc2ccc(OC)cc2)NC(=O)[C@H](CC2CCC2)NC(=O)[C@H](Cc2cccnc2)NC(=O)[C@H](CCCNC(=N)N)NC(=O)[C@H](Cc2ccccc2)NC(=O)CSC[C@@](C)(C(N)=O)NC(=O)[C@H](Cc2ccccc2)N(C)C1=O` [compound 347, cyclo(F-R~3Pal-cBuA-TyrOMe-Ahp-NMeF-aMeCl-ClAc)]: a half-maximal response (EC50) required 5.72 nM.
With `CCCCC[C@@H]1NC(=O)[C@H](Cc2ccc(OC)cc2)NC(=O)[C@H](CC2CCC2)NC(=O)[C@H](CCCCCN)NC(=O)[C@H](CCCNC(=N)N)NC(=O)[C@H](Cc2ccccc2)NC(=O)CSC[C@@](C)(C(N)=O)NC(=O)[C@H](Cc2ccccc2)N(C)C1=O` [compound 348, cyclo(F-R-hK-cBuA-TyrOMe-Ahp-NMeF-aMeCl-ClAc)] ({CH2CO}-FR[hLys][Cba]Y(Me)[Ahp(2)][NMeF][αMeC]-NH2; thioether N-8), the EC50 – broadly, the concentration giving half of the maximal effect – was found to be 45.8 nM. Against the preceding compound, the EC50 is about 8-fold higher.
With `CCCCC[C@@H]1NC(=O)[C@H](Cc2ccc(OC)cc2)NC(=O)[C@H](CCCC)NC(=O)[C@H](Cc2ccc(NC(=N)N)cc2)NC(=O)[C@H](CCCNC(=N)N)NC(=O)[C@H](Cc2ccccc2)NC(=O)CSC[C@H](C(N)=O)NC(=O)[C@H](Cc2ccccc2)N(C)C1=O` [compound 350, cyclo(F-R-Phe4Gn-Nle-TyrOMe-Abp-NMeF-dCl-ClAc)] ({CH2CO}-FR[Phe(4-guanidino)][Nle]Y(Me)[Ahp(2)][NMeF][dC]-NH2; thioether N-8), the EC50 came to 35.4 nM. The EC50 values of the last two compounds are within 1.5-fold of each other.
The same measure for `CCCCC[C@@H]1NC(=O)[C@H](Cc2ccc(OC)cc2)NC(=O)[C@H](CC2CCC2)NC(=O)[C@H](Cc2ccc(NC(=N)N)cc2)NC(=O)[C@H](CCCNC(=N)N)NC(=O)[C@H](Cc2ccccc2)NC(=O)CSC[C@H](C(N)=O)NC(=O)[C@H](Cc2ccccc2)N(C)C1=O` [compound 352, cyclo(F-R-Phe4Gn-cBuA-TyrOMe-Ahp-NMeF-dCl-ClAc)] ({CH2CO}-FR[Phe(4-guanidino)][Cba]Y(Me)[Ahp(2)][NMeF][dC]-NH2; thioether N-8): 4.92 nM; for `CCCCC[C@@H]1NC(=O)[C@H](Cc2ccc(OC)cc2)NC(=O)[C@H](CC2CCC2)NC(=O)[C@H](Cc2ccc(NC(=N)N)cc2)NC(=O)[C@H](CCCCNC)N(C)C(=O)[C@H](Cc2ccccc2)NC(=O)CSC[C@@](C)(C(N)=O)NC(=O)[C@H](Cc2ccccc2)N(C)C1=O` [compound 360, cyclo(F-NMeLysMe-Phe4Gn-cBuA-TyrOMe-Ahp-NMeF-aMeCl-ClAc)] ({CH2CO}-F[NMeLys(Me)][Phe(4-guanidino)][Cba]Y(Me)[Ahp(2)][NMeF][αMeC]-NH2; thioether N-8): 291 nM; for `CCCCC[C@@H]1NC(=O)[C@H](Cc2ccc(OC)cc2)NC(=O)[C@H](CC2CCC2)NC(=O)[C@H](Cc2ccc(NC(=N)N)cc2)NC(=O)CN(CCCNC(=N)N)C(=O)[C@H](Cc2ccccc2)NC(=O)CSC[C@@](C)(C(N)=O)NC(=O)[C@H](Cc2ccccc2)N(C)C1=O` [compound 361, cyclo(F-NGnG-Phe4Gn-cBuA-TyrOMe-Ahp-NMeF-aMeCl-ClAc)] ({CH2CO}-F[Gly(N-(CH2)3-guanidino)][Phe(4-guanidino)][Cba]Y(Me)[Ahp(2)][NMeF][αMeC]-NH2; thioether N-8): 37 nM.
The same measure for `CCCCC[C@@H]1NC(=O)[C@H](Cc2ccc(OC)cc2)NC(=O)[C@H](CC2CCC2)NC(=O)[C@H](Cc2ccn(C)n2)NC(=O)[C@H](CCCNC(=N)N)NC(=O)[C@H](Cc2ccccc2)NC(=O)CSC[C@@](C)(C(N)=O)NC(=O)[C@H](Cc2ccccc2)N(C)C1=O` [compound 362, cyclo(F-R-MePyzAla-cBuA-TyrOMe-Ahp-NMeF-aMeCl-ClAc)]: 1810 nM.
The same measure for `CCCCC[C@@H]1NC(=O)[C@H](Cc2ccc(OC)cc2)NC(=O)[C@H](CC2CCC2)NC(=O)[C@H](Cc2cncs2)NC(=O)[C@H](CCCNC(=N)N)NC(=O)[C@H](Cc2ccccc2)NC(=O)CSC[C@@](C)(C(N)=O)NC(=O)[C@H](Cc2ccccc2)N(C)C1=O` [compound 363, cyclo(F-R-TZAla-cBuA-TyrOMe-Ahp-NMeF-aMeCl-ClAc)] ({CH2CO}-FR[Ala(thiazol-5-yl)][Cba]Y(Me)[Ahp(2)][NMeF][αMeC]-NH2; thioether N-8): 13.2 nM.
As for `CCCCC[C@@H]1NC(=O)[C@H](Cc2ccc(OC)cc2)NC(=O)[C@H](CC2CCC2)NC(=O)[C@H](Cc2ccc(C)nc2)NC(=O)[C@H](CCCNC(=N)N)NC(=O)[C@H](Cc2ccccc2)NC(=O)CSC[C@@](C)(C(N)=O)NC(=O)[C@H](Cc2ccccc2)N(C)C1=O` [compound 364, cyclo(F-R-4Me3Pal-cBuA-TyrOMe-Ahp-NMeF-aMeCl-ClAc)], the EC50 was 33.5 nM.
For `CCCCC[C@@H]1NC(=O)[C@H](Cc2ccc(OC)cc2)NC(=O)[C@H](CC2CCC2)NC(=O)[C@H](Cc2ccc(OC)nc2)NC(=O)[C@H](CCCNC(=N)N)NC(=O)[C@H](Cc2ccccc2)NC(=O)CSC[C@@](C)(C(N)=O)NC(=O)[C@H](Cc2ccccc2)N(C)C1=O` [compound 365, cyclo(F-R-40Me3Pal-cBuA-TyrOMe-Ahp-NMeF-aMeCl-ClAc)] ({CH2CO}-FR[3Pal(6-OMe)][Cba]Y(Me)[Ahp(2)][NMeF][αMeC]-NH2; thioether N-8) the value was 50.3 nM; for `CCCCC[C@@H]1NC(=O)[C@H](Cc2ccc(OC)cc2)NC(=O)[C@H](CC2CCCC2)NC(=O)[C@H](Cc2ccc(NC(=N)N)cc2)NC(=O)[C@H](CCCNC(=N)N)NC(=O)[C@H](Cc2ccccc2)NC(=O)CSC[C@@](C)(C(N)=O)NC(=O)[C@H](Cc2ccccc2)N(C)C1=O` [compound 366, cyclo(F-R-Phe4Gn-cPeA-TyrOMe-Ahp-NMeF-aMeCl-ClAc)] ({CH2CO}-FR[Phe(4-guanidino)][Ala(cPent)]Y(Me)[Ahp(2)][NMeF][αMeC]-NH2; thioether N-8), 4.01 nM.
For `CCCCC[C@@H]1NC(=O)[C@H](Cc2ccc(OC)cc2)NC(=O)[C@H](CC2CCC2)NC(=O)[C@H](Cc2cncnc2)NC(=O)[C@H](CCCNC(=N)N)NC(=O)[C@H](Cc2ccccc2)NC(=O)CSC[C@@](C)(C(N)=O)NC(=O)[C@H](Cc2ccccc2)N(C)C1=O` [compound 367, cyclo(F-R-PyrimAla-cBuA-TyrOMe-Ahp-NMeF-aMeCl-ClAc)] ({CH2CO}-FR[Ala(pyrimidin-5-yl)][Cba]Y(Me)[Ahp(2)][NMeF][αMeC]-NH2; thioether N-8) the value was 4.05 nM.
For `CCCCC[C@@H]1NC(=O)[C@H](Cc2ccc(OC)cc2)NC(=O)[C@H](CC2CCC2)NC(=O)[C@H](Cc2ccc(=O)[nH]c2)NC(=O)[C@H](CCCNC(=N)N)NC(=O)[C@H](Cc2ccccc2)NC(=O)CSC[C@@](C)(C(N)=O)NC(=O)[C@H](Cc2ccccc2)N(C)C1=O` [compound 369, cyclo(F-R-4CO3Pal-cBuA-TyrOMe-Abp-NMeF-aMeCl-ClAc)] the value was 19.4 nM.
